Laboratory results taken from ChEMBL document CHEMBL2390865, “Discovery of aryl ureas and aryl amides as potent and selective histamine H3 receptor antagonists for the treatment of obesity (part II)” (Bioorg Med Chem Lett, 2013).
In brackets after ≈: the same amount, converted by molar mass. Activity calls are given as the source filed them. The calls are words filed in the database; no cut-off is given here.

Legend:
[1] = Drug metabolism in human liver microsomes; format: ADME, Microsome; settings: read-out: Drug metabolism
[2] = target: Histamine H2 receptor (Homo sapiens) (UniProt P25021); assay: Binding affinity to human histamine H2 receptor
[3] = target: Histamine H1 receptor (Homo sapiens, UniProt P35367); assay: Binding affinity to human histamine H1 receptor
[4] = target: Histamine H3 receptor (Rattus norvegicus, UniProt Q9QYN8); assay: Displacement of [3H]N-alpha-methylhistamine from rat histamine H3 receptor
[5] = target: Voltage-gated inwardly rectifying potassium channel KCNH2 (Homo sapiens, UniProt Q12809); assay: Inhibition of human ERG channel
[6] = target: T1, Histamine H3 receptor (Homo sapiens, UniProt Q9Y5N1); assay: Displacement of [3H]N-alpha-methylhistamine from human histamine H3 receptor
[7] = Antagonist activity at rhesus monkey histamine H3 receptor by GTPgammaS binding assay; parameters: species or system Macaca mulatta
[8] = Displacement of [3H]N-alpha-methylhistamine from rhesus monkey histamine H3 receptor transfected in CHO cells; format: cell-based, Macaca mulatta
[9] = Drug metabolism in rat liver microsomes; format: ADME, Microsome; settings: read-out: Drug metabolism
[10] = Apparent permeability across human Caco2/TC7 cells; format: ADME, cell-based; settings: Caco-2
[11] = Drug metabolism in mouse liver microsomes; format: ADME, Microsome; settings: read-out: Drug metabolism
[12] = target: T2, hERG (KCNH2) (Homo sapiens, UniProt Q12809); assay: Inhibition of human ERG channel at 10 uM
[13] = target: T2, hERG (KCNH2); assay: Inhibition of human ERG channel at 1 uM
[14] = target: T1, Histamine H3 receptor; assay: Antagonist activity at human histamine H3 receptor at 10 uM by GTPgammaS binding assay; format: functional
[15] = target: T1, Histamine H3 receptor; assay: Antagonist activity at human histamine H3 receptor by FLIPR assay
[16] = Solubility of the compound; format: physicochemical
[17] = tested on: Mus musculus; assay: Antiobesity activity in diet-induced obese mouse assessed as reduction in accumulated food intake at 1 to 3 mg/kg, po after 4 hrs (reference value: -4.7 %); format: functional; parameters: scale not given: the % may be the effect or the level left; settings: dose mg/kg 1-3
[18] = tested on: Mus musculus; assay: Antiobesity activity in diet-induced obese mouse assessed as reduction in accumulated food intake at 1 to 3 mg/kg, po after 12 hrs (reference value: 27.3 %); format: functional; parameters: scale not given: the % may be the effect or the level left; settings: dose mg/kg 1-3
[19] = tested on: Mus musculus; assay: Antiobesity activity in po dosed diet-induced obese mouse assessed as reduction in accumulated food intake after 4 to 12 hrs; format: functional, organism-based
[20] = tested on: Mus musculus; assay: Antiobesity activity in diet-induced obese mouse assessed as reduction in accumulated food intake at 1 to 3 mg/kg, po after 6 hrs (reference value: 0.1 %); format: functional; parameters: scale not given: the % may be the effect or the level left; settings: dose mg/kg 1-3

T1 sequence (Q9Y5N1 whole entry): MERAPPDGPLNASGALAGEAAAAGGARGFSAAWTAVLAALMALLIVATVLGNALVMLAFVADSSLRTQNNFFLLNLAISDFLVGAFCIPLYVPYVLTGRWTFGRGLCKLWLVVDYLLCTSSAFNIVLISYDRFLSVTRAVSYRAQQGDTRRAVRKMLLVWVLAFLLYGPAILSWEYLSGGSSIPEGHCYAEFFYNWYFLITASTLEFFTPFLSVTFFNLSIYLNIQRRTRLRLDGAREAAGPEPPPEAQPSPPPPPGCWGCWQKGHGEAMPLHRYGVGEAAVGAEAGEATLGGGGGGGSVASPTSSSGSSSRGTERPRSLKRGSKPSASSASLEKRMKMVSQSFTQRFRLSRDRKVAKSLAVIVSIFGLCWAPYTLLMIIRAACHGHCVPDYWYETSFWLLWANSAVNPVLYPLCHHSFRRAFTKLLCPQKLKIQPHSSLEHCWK
Chain of Voltage-gated inwardly rectifying potassium channel KCNH2 (Q12809 whole entry): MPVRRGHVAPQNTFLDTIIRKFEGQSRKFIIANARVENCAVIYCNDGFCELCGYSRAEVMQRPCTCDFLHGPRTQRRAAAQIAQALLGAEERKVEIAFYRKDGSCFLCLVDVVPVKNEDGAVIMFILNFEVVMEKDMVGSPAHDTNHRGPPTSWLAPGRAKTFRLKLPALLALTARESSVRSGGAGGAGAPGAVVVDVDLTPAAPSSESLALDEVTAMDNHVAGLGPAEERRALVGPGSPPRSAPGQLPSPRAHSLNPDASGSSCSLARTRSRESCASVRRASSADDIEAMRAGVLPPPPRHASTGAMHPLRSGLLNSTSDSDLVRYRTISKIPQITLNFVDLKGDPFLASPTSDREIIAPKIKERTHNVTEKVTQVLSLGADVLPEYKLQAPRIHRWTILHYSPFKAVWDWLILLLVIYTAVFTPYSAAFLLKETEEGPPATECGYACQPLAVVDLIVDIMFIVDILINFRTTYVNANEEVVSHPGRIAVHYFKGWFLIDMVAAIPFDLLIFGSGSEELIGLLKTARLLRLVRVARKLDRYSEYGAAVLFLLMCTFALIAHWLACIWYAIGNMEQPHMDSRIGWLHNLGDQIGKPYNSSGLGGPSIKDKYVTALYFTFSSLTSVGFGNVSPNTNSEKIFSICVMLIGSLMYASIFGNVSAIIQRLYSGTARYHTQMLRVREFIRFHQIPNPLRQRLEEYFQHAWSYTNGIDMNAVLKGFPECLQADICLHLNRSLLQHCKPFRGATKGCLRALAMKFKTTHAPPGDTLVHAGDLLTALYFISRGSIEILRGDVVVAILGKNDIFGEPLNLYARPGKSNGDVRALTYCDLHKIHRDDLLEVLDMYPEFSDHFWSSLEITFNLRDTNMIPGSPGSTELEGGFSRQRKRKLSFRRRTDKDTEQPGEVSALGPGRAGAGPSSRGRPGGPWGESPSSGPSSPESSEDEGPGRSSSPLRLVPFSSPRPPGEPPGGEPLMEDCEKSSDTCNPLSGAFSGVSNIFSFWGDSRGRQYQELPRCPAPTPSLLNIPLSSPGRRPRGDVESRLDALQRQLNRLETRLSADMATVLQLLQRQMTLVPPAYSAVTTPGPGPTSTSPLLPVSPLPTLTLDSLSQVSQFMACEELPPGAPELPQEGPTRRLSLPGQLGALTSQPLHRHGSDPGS
T2 sequence (Q12809 whole entry): as above
Chain of Histamine H3 receptor (Rattus norvegicus, UniProt Q9QYN8) (Q9QYN8 whole entry): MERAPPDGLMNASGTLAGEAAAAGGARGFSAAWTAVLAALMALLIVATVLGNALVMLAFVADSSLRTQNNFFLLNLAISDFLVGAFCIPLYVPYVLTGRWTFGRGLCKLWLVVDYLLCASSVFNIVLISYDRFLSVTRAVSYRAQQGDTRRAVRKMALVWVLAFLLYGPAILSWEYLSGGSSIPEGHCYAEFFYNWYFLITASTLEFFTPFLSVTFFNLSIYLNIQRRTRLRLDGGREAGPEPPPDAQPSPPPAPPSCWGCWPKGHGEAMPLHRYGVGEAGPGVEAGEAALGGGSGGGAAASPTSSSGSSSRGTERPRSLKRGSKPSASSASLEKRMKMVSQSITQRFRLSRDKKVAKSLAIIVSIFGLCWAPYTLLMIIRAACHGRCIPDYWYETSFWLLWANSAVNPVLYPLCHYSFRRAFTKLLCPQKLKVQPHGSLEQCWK
Chain of Histamine H1 receptor (P35367 whole entry): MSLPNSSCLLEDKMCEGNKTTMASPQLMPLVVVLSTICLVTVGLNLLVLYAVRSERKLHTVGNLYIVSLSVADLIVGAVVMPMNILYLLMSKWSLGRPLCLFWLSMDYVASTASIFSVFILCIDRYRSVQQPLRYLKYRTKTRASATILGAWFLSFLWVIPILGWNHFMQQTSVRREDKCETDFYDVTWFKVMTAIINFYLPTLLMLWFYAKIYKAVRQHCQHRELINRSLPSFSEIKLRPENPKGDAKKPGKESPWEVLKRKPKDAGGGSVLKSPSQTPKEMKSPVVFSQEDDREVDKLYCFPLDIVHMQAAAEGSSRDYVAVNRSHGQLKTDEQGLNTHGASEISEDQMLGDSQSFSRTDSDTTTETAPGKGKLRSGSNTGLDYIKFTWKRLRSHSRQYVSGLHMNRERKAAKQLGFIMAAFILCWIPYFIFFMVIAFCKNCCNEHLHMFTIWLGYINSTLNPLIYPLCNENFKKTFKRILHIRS
Chain of Histamine H2 receptor (Homo sapiens) (P25021 whole entry): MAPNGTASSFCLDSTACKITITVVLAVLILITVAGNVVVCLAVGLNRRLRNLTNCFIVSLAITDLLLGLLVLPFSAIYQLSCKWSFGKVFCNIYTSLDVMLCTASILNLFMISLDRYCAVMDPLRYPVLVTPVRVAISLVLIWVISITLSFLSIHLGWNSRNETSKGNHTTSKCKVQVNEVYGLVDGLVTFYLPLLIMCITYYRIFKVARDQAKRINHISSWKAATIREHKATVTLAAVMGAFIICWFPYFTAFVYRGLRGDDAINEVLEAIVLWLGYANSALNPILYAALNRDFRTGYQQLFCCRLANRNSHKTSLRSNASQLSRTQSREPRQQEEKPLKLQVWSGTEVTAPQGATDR

## Cc1cc(N2CCC(N3CCCC3C)C2)ccc1NC(=O)c1ccccc1F (stereo unspecified)
[1]
  metabolised: 15%
[2]
  Activity: inactive
[3]
  Ki: > 9300 nM
[4]
  Ki: 55.4 nM
[5]
  IC50: 1000 nM
[6]
  Ki: 13.8 nM
[7]
  EC50: 2.9 nM
[8]
  Ki: 5.8 nM
[9]
  metabolised: 28%
[10]
  Papp: 9.24 ×10⁻⁶ cm/s

## Cc1cc(N2CCC(N3CCCC3C)C2)ccc1NC(=O)c1ccc(-c2ccncc2)cc1 (stereo unspecified)
[8]
  Ki: 26.7 nM

## Cc1cc(NC(=O)c2cn[nH]c2)ccc1N1CCC(N2CCCC2C)C1 (stereo unspecified)
[8]
  Ki: 126 nM

## Cc1cc(C)n(-c2ccc(C(=O)Nc3ccc(N4CCC(N5CCCC5C)C4)cc3C)cc2)n1 (stereo unspecified)
[1]
  metabolised: 87%
[8]
  Ki: 4.3 nM
[11]
  metabolised: 89%
[9]
  metabolised: 79%

## CC1CCCN1C1CCN(c2ccc(NC(=O)c3ccc(CN4CCOCC4)cc3)cc2)C1 (stereo unspecified)
[8]
  Ki: 70.2 nM

## Cc1cc(N2CCC(N3CCCC3C)C2)ccc1NC(=O)c1cccnc1 (stereo unspecified)
[1]
  metabolised: 9%
[8]
  Ki: 10.1 nM
[11]
  metabolised: 30%
[9]
  metabolised: 57%

## Cc1cc(N2CCC(CN3CCCC3C)C2)ccc1NC(=O)c1ccc(C)c(S(C)(=O)=O)c1 (stereo unspecified)
[8]
  Ki: 29 nM

## CC1CCCN1C1CCN(c2ccc(NC(=O)c3ccccc3F)c(C(F)(F)F)c2)C1 (stereo unspecified)
[1]
  metabolised: 14%
[8]
  Ki: 16.9 nM
[11]
  metabolised: 44%
[9]
  metabolised: 45%

## Cc1cc(N2CCC(CN3CCCC3C)C2)ccc1NC(=O)c1ccc(CO)cc1 (stereo unspecified)
[8]
  Ki: 62.1 nM

## Cc1cc(N2CC3CC4CCCN4C3C2)ccc1NC(=O)c1cc(F)ccc1C (stereo unspecified)
[8]
  Ki: 908 nM

## Cc1cc(NC(=O)c2ccc(Cl)cc2)ccc1N1CCC(N2CCCC2C)C1 (stereo unspecified)
[1]
  metabolised: 29%
[8]
  Ki: 4.8 nM
[11]
  metabolised: 43%
[9]
  metabolised: 90%

## Cc1ccc(F)cc1C(=O)Nc1ccc(N2CCC(N3CCCC3C)C2)cc1C(F)(F)F (stereo unspecified)
[8]
  Ki: 4 nM

## Cc1cc(N2CCC(N3CCCC3C)C2)ccc1NC(=O)c1ccc(-c2ccccn2)cc1 (stereo unspecified)
[8]
  Ki: 12.2 nM

## Cc1cc(N2CCC(N3CCCC3C)C2)ccc1NC(=O)c1ccc(C#N)cc1 (stereo unspecified)
[8]
  Ki: 11.3 nM

## CC1CCCN1C1CCN(c2ccc(NC(=O)c3ccc(Cl)cc3)cc2)C1 (stereo unspecified)
[1]
  metabolised: 20%
[12]
  inhibition at 10 µM: 95%
[8]
  Ki: 4.7 nM
[13]
  inhibition at 1 µM: 19.9%
[11]
  metabolised: 43%
[9]
  metabolised: 90%

## CC1CCCN1C1CCN(c2ccc(NC(=O)c3cccs3)cc2)C1 (stereo unspecified)
[8]
  Ki: 14 nM

## Cc1cc(N2CCC(N3CCCC3C)C2)ccc1NC(=O)c1ccc(-n2cccn2)cc1 (stereo unspecified)
[8]
  Ki: 39.1 nM

## CC1CCCN1C1CCN(c2ccc(NC(=O)c3cn[nH]c3)cc2)C1 (stereo unspecified)
[8]
  Ki: 22.1 nM

## CC1CCCN1C1CCN(c2ccc(NC(=O)c3cccc(F)c3)c(C(F)(F)F)c2)C1 (stereo unspecified)
[8]
  Ki: 40 nM

## Cc1cc(N2CCC(N3CCCC3C)C2)ccc1NC(=O)c1ccc(Oc2nccs2)cc1 (stereo unspecified)
[8]
  Ki: 24 nM

## Cc1cc(N2CCC(N3CCCC3C)C2)ccc1NC(=O)c1cc2ccccc2[nH]1 (stereo unspecified)
[8]
  Ki: 71.1 nM

## CC1CCCN1C1CCN(c2ccc(NC(=O)c3cccc(F)c3)cc2)C1 (stereo unspecified)
[8]
  Ki: 10.6 nM

## Cc1cc(N2CCC(N3CCCC3C)C2)ccc1NC(=O)c1ccc(Oc2ccccn2)cc1 (stereo unspecified)
[8]
  Ki: 22.8 nM

## Cc1cc(N2CCC(N3CCCC3C)C2)ccc1NC(=O)c1cccs1 (stereo unspecified)
[8]
  Ki: 12.4 nM

## Cc1cc(NC(=O)c2cccs2)ccc1N1CCC(N2CCCC2C)C1 (stereo unspecified)
[8]
  Ki: 19.9 nM

## Cc1cc(N2CCC(N3CCCC3C)C2)ccc1NC(=O)c1ccc2cc[nH]c2c1 (stereo unspecified)
[1]
  metabolised: 16%
[8]
  Ki: 15.1 nM
[11]
  metabolised: 21%
[9]
  metabolised: 64%
[10]
  Papp: 7.81 ×10⁻⁶ cm/s

## CC1CCCN1C1CCN(c2ccc(NC(=O)c3cc(Cl)cc(Cl)c3)cc2)C1 (stereo unspecified)
[14]
  inhibition: 119%
[8]
  Ki: 49.5 nM
[15]
  IC50: 0.48 nM

## Cc1cc(C(=O)Nc2ccc(N3CCC(N4CCCC4C)C3)cc2)n[nH]1 (stereo unspecified)
[1]
  metabolised: 2%
[8]
  Ki: 44.5 nM
[11]
  metabolised: 16%
[9]
  metabolised: 37%
[10]
  Papp: 9.19 ×10⁻⁶ cm/s

## CC1CCCN1C1CCN(c2ccc(NC(=O)c3ccccc3N(C)C)cc2)C1 (stereo unspecified)
[8]
  Ki: 13.8 nM

## Cc1cc(N2CCC(N3CCCC3C)C2)ccc1NC(=O)c1cc(Cl)cc(Cl)c1 (stereo unspecified)
[8]
  Ki: 24.1 nM

## Cc1cc(N2CCC(CN3CCCC3C)C2)ccc1NC(=O)c1ccc2cc[nH]c2c1 (stereo unspecified)
[8]
  Ki: 18 nM

## Cc1cc(N2CCC(N3CCCC3C)C2)ccc1NC(=O)c1ccc(C)c(S(C)(=O)=O)c1 (stereo unspecified)
[8]
  Ki: 11.9 nM

## Cc1cc(NC(=O)c2c(C)noc2C)ccc1N1CCC(N2CCCC2C)C1 (stereo unspecified)
[8]
  Ki: 3.2 nM

## Cc1cc(N2CCC(N3CCCC3C)C2)ccc1NC(=O)c1ccc(CO)cc1 (stereo unspecified)
[8]
  Ki: 12.7 nM

## Cc1ccc(F)cc1C(=O)Nc1ccc(N2CCC(N3CCCC3C)C2)cc1 (stereo unspecified)
[8]
  Ki: 4.7 nM

## Cc1cc(N2CCC(N3CCCC3C)C2)ccc1NC(=O)c1c(C)noc1C (stereo unspecified)
[8]
  Ki: 2.6 nM

## Cc1cc(NC(=O)c2cc(Cl)cc(Cl)c2)ccc1N1CCC(N2CCCC2C)C1 (stereo unspecified)
[8]
  Ki: 54 nM

## COc1ccc(C(=O)Nc2ccc(N3CCC(N4CCCC4C)C3)cc2)cc1 (stereo unspecified)
[8]
  Ki: 17.6 nM

## Cc1cc(N2CCC(N3CCCC3C)C2)ccc1NC(=O)c1cc(F)ccc1C (stereo unspecified)
[1]
  metabolised: 5%
[16]
  solubility: 2670 µg/mL (≈ 6.75 mM)
[2]
  Activity: inactive
[17]
  Activity: 59.8%
[18]
  Activity: 30.4%
[3]
  Ki: > 9300 nM
[4]
  Ki: 16.5 nM
[5]
  IC50: 480 nM
[6]
  Ki: 8.6 nM
[19]
  Activity: Dose-dependent effect
[7]
  EC50: 1.1 nM
[20]
  Activity: 39.6%
[8]
  Ki: 1.2 nM
[9]
  metabolised: 38%
[10]
  Papp: 9.19 ×10⁻⁶ cm/s

## Cc1cc(N2CCC(CN3CCCC3C)C2)ccc1NC(=O)c1ccc2[nH]ccc2c1 (stereo unspecified)
[8]
  Ki: 45 nM

## Cc1cc(N2CCC(N3CCCC3C)C2)ccc1NC(=O)c1ccc(-c2cccnc2)cc1 (stereo unspecified)
[8]
  Ki: 18.8 nM

## Cc1cc(N2CCC(N3CCCC3C)C2)ccc1NC(=O)c1cn[nH]c1 (stereo unspecified)
[1]
  metabolised: 2%
[8]
  Ki: 24.7 nM
[11]
  metabolised: 16%
[9]
  metabolised: 28%
[10]
  Papp: 0.35 ×10⁻⁶ cm/s

## Cc1cc(N2CCC(N3CCCC3C)C2)ccc1NC(=O)c1ccc(-n2cncn2)cc1 (stereo unspecified)
[8]
  Ki: 8.1 nM

## Cc1cc(N2CCC(N3CCCC3C)C2)ccc1NC(=O)c1cccc(F)c1 (stereo unspecified)
[8]
  Ki: 12.1 nM

## CC1CCCN1C1CCN(c2ccc(NC(=O)c3cccc(N(C)C)c3)cc2)C1 (stereo unspecified)
[8]
  Ki: 33.3 nM

## Cc1noc(C)c1C(=O)Nc1ccc(N2CCC(N3CCCC3C)C2)cc1 (stereo unspecified)
[1]
  metabolised: 13%
[8]
  Ki: 2.1 nM
[11]
  metabolised: 12%
[9]
  metabolised: 24%

## Cc1cc(N2CCC(N3CCCC3C)C2)ccc1NC(=O)c1ccc2[nH]ccc2c1 (stereo unspecified)
[8]
  Ki: 30.4 nM

## Cc1cc(N2CCC(N3CCCC3C)C2)ccc1NC(=O)c1ccc(S(C)(=O)=O)cc1 (stereo unspecified)
[8]
  Ki: 25.6 nM

## CC1CCCN1C1CCN(c2ccc(NC(=O)c3ccc(N(C)C)cc3)cc2)C1 (stereo unspecified)
[8]
  Ki: 33.5 nM

## CC1CCCN1C1CCN(c2ccc(NC(=O)c3ccccc3F)cc2)C1 (stereo unspecified)
[1]
  metabolised: 12%
[8]
  Ki: 8.2 nM
[11]
  metabolised: 31%
[9]
  metabolised: 48%

## Cc1cc(N2CCC(N3CCCC3C)C2)ccc1NC(=O)c1ccc(Cl)cc1 (stereo unspecified)
[1]
  metabolised: 32%
[8]
  Ki: 2.6 nM
[11]
  metabolised: 22%
[9]
  metabolised: 33%

## Cc1cc(N2CCC(N3CCCC3C)C2)ccc1NC(=O)c1ccc(N2CCOCC2)cc1 (stereo unspecified)
[8]
  Ki: 44 nM

## Cc1cc(N2CCC(CN3CCCC3C)C2)ccc1NC(=O)c1ccc(-n2cccc2)cc1 (stereo unspecified)
[8]
  Ki: 3.1 nM
